Test results reported in patent US20080125432A1 (Devgen NV, priority 2004, published 2008).
Like-named read-outs stand apart in the source and are kept apart here.

How the values were obtained:
[1] = target: T1, human Kv4.3/KChIP2.2 potassium channel (Homo sapiens, UniProt Q9UK17); test: Whole cell patch clamp, CHO-K1 cells stably expressing human Kv4.3/KChIP2.2; type: cell-based; conditions: CHO-K1
T1 construct: expressed in transfected cells
T1 sequence (Q9UK17 1-655): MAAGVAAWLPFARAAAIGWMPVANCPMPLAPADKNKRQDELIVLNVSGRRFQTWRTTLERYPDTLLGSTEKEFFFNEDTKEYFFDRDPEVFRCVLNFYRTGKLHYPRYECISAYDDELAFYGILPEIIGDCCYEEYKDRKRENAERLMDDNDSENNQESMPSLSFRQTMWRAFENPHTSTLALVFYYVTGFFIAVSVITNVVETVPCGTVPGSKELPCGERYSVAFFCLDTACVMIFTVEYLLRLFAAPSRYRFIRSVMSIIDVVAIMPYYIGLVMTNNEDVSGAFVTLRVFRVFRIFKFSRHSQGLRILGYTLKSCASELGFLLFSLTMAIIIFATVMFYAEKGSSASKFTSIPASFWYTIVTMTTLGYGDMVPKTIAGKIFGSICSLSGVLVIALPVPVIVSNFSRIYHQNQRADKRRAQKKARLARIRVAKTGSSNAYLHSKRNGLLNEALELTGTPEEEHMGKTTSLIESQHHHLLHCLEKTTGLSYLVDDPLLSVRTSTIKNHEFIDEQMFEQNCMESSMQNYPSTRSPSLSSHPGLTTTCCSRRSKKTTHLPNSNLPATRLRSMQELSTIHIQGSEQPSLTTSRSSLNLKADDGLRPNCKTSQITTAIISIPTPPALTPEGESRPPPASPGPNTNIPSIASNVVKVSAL
Protocol: For this experiment, a recombinant CHO-K1 cell line stably expressing the human Kv4.3/KChIP2.2 potassium channel was used. The cells used for this experiment were kept in continuous culture under standard conditions (37° C., air supplemented with 7% CO2). The CHO-K1 Kv4.3/KChIP2.2 cells were kept in Iscove s modified DMEM (Dulbecco's Modified Eagle's Medium) medium (IMEM) supplemented with 100 U/ml Penicillin, 100 μg/ml Streptomycin, 7% fetal calf serum (FCS), 2.5 μg/ml amphotericin, 400 μg/ml G418, and 400 μg/ml Zeocin™. Cells were passed every 3-4 days after detachment using a Trypsin solution. The quality of the cultured cells was guaranteed by vitality and contamination tests. The culture of the cells was performed as described in protocol D hereunder.
10 mM stock solutions of the compounds were prepared in DMSO. Solutions of the compounds were prepared by dilution of stock solution in bath solution. If the required stock solution volume was theoretically below 1 μl, bath solutions with higher compound concentration were used for dilution. The maximal DMSO concentration during experiments was 0.1% (v/v).
Activity of the human Kv4.3/KChIP2.2 channel was investigated using the patch clamp technique in its whole cell mode. This means that the current needed for clamping the whole cell expressing the K^+-channel protein to a specific potential was measured. Experiments were performed using a patch clamp set-up. Technical equipment needed for manipulation of the cells was placed on a vibration-isolated table and shielded with a Faraday cage to minimize electrical noise. The amplifier and control system were placed in a rack outside the Faraday cage. The system consisted of an EPC9 or EPC10 patch clamp amplifier (HEKA, Lambrecht, Germany), and the perfusion system DADVC8 (ALA Scientific, New York, USA) controlled by the Pulse software package (HEKA, Lambrecht, Germany) installed on a personal computer. The pipettes used for patch clamping were made of borosilicate glass.
Measurements were performed at room temperature (20-25° C.). In each experiment (i.e. each cell) only one concentration of the compounds was investigated no cumulative dosages were performed. Each cell acted as its own control. […]
Between voltage pulses the cell was clamped to a holding potential of −80 mV (inside). The test protocols are illustrated in FIG. 1 and Table 4. The test protocol illustrated in FIG. 1a was used to characterize the properties of the Kv4.3/KChIP2.2 channel and to check the quality of the individual patch clamp experiment (voltage control). […] Each test protocol consisted of 4 segments.
After the whole cell configuration was established a current-voltage curve (IV activation 1; FIG. 1a and Table 4a) was recorded under constant superfusion with bath solution to check for Kv4.3/KChIP2.2 expression and the quality of the individual patch clamp experiment (voltage control). Subsequently, 14 test pulses (series 1; FIG. 1b and Table 4b) were applied at 0.1 Hz under constant superfusion with bath solution. The protocol was initiated by a voltage jump to 100 mV (400 ms) to achieve full inactivation. Then the Kv4.3/KChIP2.2 channels were transferred to the open state by depolarization to +40 mV for 300 milliseconds (activation). Only cells generating current amplitudes between 1 nA and 50 nA were used for the experimental procedure. No or negligible rundown was observed.
Then, 36 test pulses (series 2) were applied at 0.1 Hz under constant superfusion with the compound dissolved in bath solution. Finally, another current-voltage curve was recorded in the presence of the compounds (IV activation 2).
Three different types of analysis were used: Inhibition at the peak current, inhibition of translocated charge and inhibition 75 ms after activation at +40 mV (sustained current). The peak current/charge/current at 75 ms was determined using the online analysis tool of the HEKA pulse software package. […]

[2] = remaining current measured after application of the compound and relative to the blank, read-out: Kv4.3 charge in %
[3] = remaining peak height measured after application of the compound and relative to the blank, read-out: Kv4.3 peak in %

Structure (SMILES)	remaining activity at 1 µM [1, 2] [%]	remaining activity at 1 µM [1, 3] [%]	melting point [°C]
COc1ccccc1Nc1nc(C)c(C(=O)N[C@H](C(=O)O)c2ccccc2)s1 [Compound 114, (S)-{[2-(2-methoxy-phenylamino)-4-methyl-thiazole-5-carbonyl]-amino}-phenyl-aceticacid]	88	87	259.6 to 262
COc1ccccc1Nc1nc(C)c(C(=O)NCc2ccsc2)s1 [Compound 118, 2-(2-methoxy-phenylamino)-4-methyl-thiazole-5-carboxylic acid (thiophen-3-ylmethyl)-amide]	85	94	153.4 to 154.8
COc1ccccc1Nc1nc(C)c(C(=O)OCc2ccccc2)s1 [Compound 123, 2-(2-methoxy-phenylamino)-4-methyl-thiazole-5-carboxylic acid benzyl ester]	31	72	98.4 to 100
COc1ccccc1Nc1nc(C)c(C(=O)NCc2ccccc2)s1 [Compound 124, 2-(2-methoxy-phenylamino)-4-methyl-thiazole-5-carboxylic acid benzylamide]	90	95	153.6 to 156.2
COc1ccccc1Nc1nc(C)c(C(=O)N2CCN(Cc3ccccc3)C[C@@H]2Cc2ccccc2)s1 [Compound 125, ((S)-2,4-dibenzyl-piperazin-1-yl)-[2-(2-methoxy-phenylamino)-4-methyl-thiazol-5-yl]-methanone]	74	95	89.3 to 92.5
COc1ccccc1Nc1nc(C)c(C(=O)NCc2cc(C)ccc2C)s1 [Compound 160, 2-(2-methoxy-phenylamino)-4-methyl-thiazole-5-carboxylic acid 2,5-dimethyl-benzylamide]	90	99	124.1 to 124.9
COc1ccccc1Nc1nc(C)c(C(=O)N2CCC(c3ccccc3OC)CC2)s1 [Compound 165, [2-(2-methoxy-phenylamino)-4-methyl-thiazol-5-yl]-[4-(2-methoxy-phenyl)-piperidin-1-yl]-methanone]	80	100	134.5 to 139
COc1ccccc1Nc1nc(C)c(C(=O)N2CCC(n3c(=O)[nH]c4ccccc43)CC2)s1 [Compound 170, 1-{1-[2-(2-methoxy-phenylamino)-4-methyl-thiazole-5-carbonyl]-piperidin-4-yl}-1,3-dihydro-benzoimidazol-2-one]	90	97	> 250
Cc1nc(NCc2ccccc2)sc1C(=O)N[C@H]1CCC[C@@H]1OCc1ccccc1 [Compound 211, 2-benzylamino-4-methyl-thiazole-5-carboxylic acid ((1S,2S)-2-benzyloxycyclopent-1-yl) amide]	86	98	185.1 to 185.8

The remaining lines, values ahead:

remaining activity at 1 µM [1, 2] [%]	remaining activity at 1 µM [1, 3] [%]	melting point [°C]	Structure (SMILES)
76	89	159.7 to 162.4	COc1ccccc1Nc1nc(C)c(C(=O)NCc2ccc(Oc3ccccc3)cc2)s1 [Compound 102, 2-(2-methoxy-phenylamino)-4-methyl-thiazole-5-carboxylic acid 4-phenoxy-benzylamide]
64	89	195.6 to 198.6	COc1ccccc1Nc1nc(C)c(C(=O)NCc2ccc(-c3cccs3)cc2)s1 [Compound 103, 2-(2-methoxy-phenylamino)-4-methyl-thiazole-5-carboxylic acid 4-thiophen-2-yl-benzylamide]
74	80	166.8 to 168.3	COc1ccccc1Nc1nc(C)c(C(=O)NCc2ccc(C)cc2)s1 [Compound 142, 2-(2-methoxy-phenylamino)-4-methyl-thiazole-5-carboxylic acid 4-methyl-benzylamide]
75	89	191.6 to 194.5	COc1ccccc1Nc1nc(C)c(C(=O)NCc2ccc(-c3csnn3)cc2)s1 [Compound 161, 2-(2-methoxy-phenylamino)-4-methyl-thiazole-5-carboxylic acid 4-[1,2,3]thiadiazol-4-yl-benzylamide]
